{"source": "paper PMC6277375", "about": "“Pharmacological profile of the neuropeptide S receptor: Dynamic mass redistribution studies” (Pharmacology Research & Perspectives, 2018)", "key": {"[1]": {"molecular_target": "T1, murine NPSR (Mus musculus, UniProt Q8BZP8)", "T1 construct": "expressed in transfected cells", "T1 sequence (Q8BZP8 1-371)": "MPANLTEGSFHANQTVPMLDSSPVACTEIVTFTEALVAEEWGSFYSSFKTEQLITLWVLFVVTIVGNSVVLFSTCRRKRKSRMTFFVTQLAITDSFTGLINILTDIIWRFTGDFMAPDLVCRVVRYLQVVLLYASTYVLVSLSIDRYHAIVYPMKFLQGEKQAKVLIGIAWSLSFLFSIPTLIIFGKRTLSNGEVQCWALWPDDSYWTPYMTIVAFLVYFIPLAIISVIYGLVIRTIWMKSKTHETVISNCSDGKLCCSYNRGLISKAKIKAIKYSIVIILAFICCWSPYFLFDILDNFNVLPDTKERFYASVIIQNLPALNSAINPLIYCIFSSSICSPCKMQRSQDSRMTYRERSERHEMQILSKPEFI", "test": "Calcium mobilization assay in HEK293mNPSR cells", "type": "cell-based", "details": "FR900359 injected 24 minute before NPS, Fluo-4 AM, FlexStation II, 37°C", "procedure": "Cells were seeded at a density of 50 000 cells/well in 100 μL into poly‐D‐lysine coated 96‐well black, clear‐bottom plates. The following day, cells were incubated with medium supplemented with 2.5 mmol L^−1 probenecid, 3 μmol L^−1 of the calcium sensitive fluorescent dye Fluo‐4 AM and 0.01% pluronic acid, for 30 minute at 37°C. Following this, the loading solution was aspirated and 100 μL of HBSS supplemented with 20 mmol L^−1 HEPES, 2.5 mmol L^−1 probenecid and 500 μmol L^−1 Brilliant Black were added. Cell culture and drug plates were placed into a fluorimetric imaging plate reader (FlexStation II, Molecular Devices, Sunnyvale, CA) and fluorescent changes were measured. On‐line additions were carried out in a volume of 50 μL/well. To facilitate drug diffusion into the wells, the present studies were performed at 37°C and three cycles of mixing (25 μL from each well moved up and down three times) were performed immediately after FR900359 injection to the wells. FR900359 was injected into the wells 24 minute before adding NPS.\nAll data were analyzed using Graph Pad Prism 6.0 (La Jolla, CA, USA). […] Data are expressed as mean ± SEM of n experiments performed in duplicate and were analyzed using one‐ or two‐way analysis of variance (ANOVA) followed by Dunnett's or Tukey's test for multiple comparisons wherever appropriate. […]"}, "[2]": {"molecular_target": "T1, murine NPSR", "test": "Dynamic mass redistribution (DMR) assay in HEK293mNPSR cells", "type": "cell-based", "details": "for DMR response, HEK293mNPSR pm ± SEM: peak at 60 minute, mean ± SEM, duplicate", "procedure": "(§1) HEK293 cells stably expressing the murine NPSR receptor (HEK293mNPSR) were described previously.3 Wild‐type HEK293 cells were used as a control. Cells were maintained in Dulbecco's Medium (DMEM) supplemented with 10% fetal bovine serum, 100 U/mL penicillin, 100 μg/mL streptomycin and, 2 mmol L^−1 L‐glutamine. The medium was complemented with 100 mg/L hygromycin for HEK293mNPSR. Cells were cultured at 37°C in 5% CO2 humidified air.\nConfluent cells were subcultured using trypsin/EDTA and used for experiments. […] On the day of the experiment, cells were manually washed twice and maintained with assay buffer for 90 minutes before DMR experiments. DMR was monitored in real time with a temporal resolution of 22 seconds throughout the assay. Experiments were performed at 37°C, using an EnSight Multimode Plate Reader (PerkinElmer), that uses the Corning® Epic® Technology to measure the DMR signal. Agonism protocol: a 5‐minute baseline was first established, followed by adding compounds manually in a volume of 10 μL and recording compounds‐triggered DMR signal for 60 minute. Antagonism protocol: antagonists were added manually 25 minute before reading the 5‐minute baseline. After baseline establishment, NPS was injected and DMR signal was recorded for 60 minute. Antagonist properties of ligands were measured by assessing the concentration‐response curve to NPS in the absence and in presence of a fixed concentration of compound. FR900359 was added 60 minute before NPS, rolipram was incubated for 90 minute before NPS, while PTX was added 24 hours before NPS. Maximum picometer (pm) modifications (peak measured at 60 minute time point) were used to determine agonist response after baseline normalization.\nAll data were analyzed using Graph Pad Prism 6.0 (La Jolla, CA, USA). Concentration‐response curves were fitted using the four parameters log logistic equation. Data are expressed as mean ± SEM of n experiments performed in duplicate and were analyzed using one‐ or two‐way analysis of variance (ANOVA) followed by Dunnett's or Tukey's test for multiple comparisons wherever appropriate. […] Antagonists potencies were assayed at single concentrations against the concentration‐response curve to NPS and their pA2 was derived using the following equation: pA2 = log(CR − 1) − log[A], where CR is the ratio between agonist potency (EC50) in the presence and in absence of antagonist and [A] is the molar concentration of antagonist."}, "[3]": {"test_system": "NPSR", "details": "cited from earlier work", "text": "The pharmacological profile of NPSR in the DMR assay has been investigated using several NPSR ligands acting as full and partial agonists and pure antagonists in the calcium mobilization assay. The DMR effects of these compounds solely derive from their capability to activate NPSR since we selected their concentration range based on lack of DMR signal in wild‐type cells. Overall, the DMR pharmacological profile of NPSR looks similar but not identical to that reported in literature using the calcium mobilization assay. The first aspect that deserves attention is related to the efficacy of NPSR ... || Regarding NPSR agonists, another point that must be addressed is the pharmacological behavior of PWT1‐NPS. […] The high in vitro potency of PWT1‐NPS was associated with a high in vivo potency and long‐lasting duration of action.31 These features seem to be common to PWT derivatives of other neuropeptides including nociceptin/orphanin FQ, opioids and tachykinins (reviewed in 40). In DMR experiments, we were not able to fully investigate the pharmacologic ..."}, "[4]": {"test_system": "wild-type HEK293 cells", "test": "DMR assay in wild-type HEK293 cells (control)", "type": "cell-based, Human", "details": "ligand 10 μmol L^−1, 37°C, peak at 60 minute after baseline normalization, mean ± SEM, duplicate", "procedure": "as §1\n(§2) Confluent cells were subcultured using trypsin/EDTA and used for experiments. Cells were seeded at a density of 20 000 cells/well in 30 μL into fibronectin‐coated Enspire™‐LC 384‐wells plates and cultured for 20 hours to form a confluent monolayer. On the day of the experiment, cells were manually washed twice and maintained with assay buffer for 90 minutes before DMR experiments. DMR was monitored in real time with a temporal resolution of 22 seconds throughout the assay. Experiments were performed at 37°C, using an EnSight Multimode Plate Reader (PerkinElmer), that uses the Corning® Epic® Technology to measure the DMR signal. Agonism protocol: a 5‐minute baseline was first established, followed by adding compounds manually in a volume of 10 μL and recording compounds‐triggered DMR signal for 60 minute. Antagonism protocol: antagonists were added manually 25 minute before reading the 5‐minute baseline. After baseline establishment, NPS was injected and DMR signal was recorded for 60 minute. Antagonist properties of ligands were measured by assessing the concentration‐response curve to NPS in the absence and in presence of a fixed concentration of compound. FR900359 was added 60 minute before NPS, rolipram was incubated for 90 minute before NPS, while PTX was added 24 hours before NPS. Maximum picometer (pm) modifications (peak measured at 60 minute time point) were used to determine agonist response after baseline normalization.\nAll data were analyzed using Graph Pad Prism 6.0 (La Jolla, CA, USA). Concentration‐response curves were fitted using the four parameters log logistic equation. Data are expressed as mean ± SEM of n experiments performed in duplicate and were analyzed using one‐ or two‐way analysis of variance (ANOVA) followed by Dunnett's or Tukey's test for multiple comparisons wherever appropriate. Agonist potency was expressed as pEC50, which is the negative logarithm to base 10 of the agonist molar concentration that produces 50% of the maximal possible effect of that agonist. Antagonists potencies were assayed at single concentrations against the concentration‐response curve to NPS and their pA2 was derived using the following equation: pA2 = log(CR − 1) − log[A], where CR is the ratio between agonist potency (EC50) in the presence and in absence of antagonist and [A] is the molar concentration of antagonist."}, "[5]": {"test_system": "HEK293mNPSR cells", "test": "DMR response to NECA with and without rolipram in HEK293mNPSR cells", "type": "cell-based", "details": "NECA 10 μmol L^−1 + rolipram 10 μmol L^−1 (90 minute before), P < 0.05 vs NECA alone", "procedure": "as §2, with “FR900359 was added 60 minute before NPS, rolipram was incubated for 90 minute before NPS, while PTX was added 24 hours before NPS.” left out, “normalization. […]” for “normalization.”"}}, "note": "Values joined by “and” are separate entries in the source; they are usually repeats but may differ in a detail not shown here. Equal entries are not always repeated. Marks after values point to notes of the source that are not given here. Numbered stars: 1 amine (or outer) side, 2 acyl side, 3 side chain; on linkers, the order of the positions; unused ones are H or OH. Bridge positions count the residues as written; N and C are the ends. Square brackets hold non-standard residues; d marks the D form. Peptide text beside a SMILES is read from it. * marks the point of attachment. Leu(3R-OH,Nα-propionyl) = CCC(=O)N[C@H](C(=O)*)[C@H](O)C(C)C; X1 = CC(C)[C@@H](O[*:3])[C@H](N[*:1])C(=O)[*:2]; NMeT = CN[C@H](C(=O)O)[C@@H](C)O; dPhLac = O=C(O)[C@H](O)Cc1ccccc1; NMeA = CN[C@@H](C)C(=O)O; NMeDha = C=C(NC)C(=O)O"}
{"compound": "C=C1C(=O)N[C@@H](C)C(=O)N(C)[C@@H](C)C(=O)N[C@@H]([C@H](OC(=O)[C@@H](NC(=O)CC)[C@H](O)C(C)C)C(C)C)C(=O)N(C)[C@@H]([C@@H](C)OC)C(=O)O[C@H](C(C)C)[C@H](NC(C)=O)C(=O)O[C@H](Cc2ccccc2)C(=O)N1C", "note": "[FR900359, [(1R)‐1‐[(3S,6S,9S,12S,18R,21S,22R)‐21‐acetamido‐18‐benzyl‐3‐[(1R)‐1‐methoxyethyl]‐4,9,10,12,16‐pentamethyl‐15‐methylidene‐2,5,8,11,14,17,20‐heptaoxo‐22‐propan‐2‐yl‐1,19‐dioxa‐4,7,10,13,16‐pentazacyclodocos‐6‐yl]‐2‐methylpropyl] (2S,3R)‐3‐hydroxy‐4‐methyl‐2‐(propanoylamino)pentanoate, reference compound] (Ac-[X1][dPhLac][NMeDha]A[NMeA][X1](Leu(3R-OH,Nα-propionyl))[NMeT](Me); ester 1-C)", "values": [{"measurement": "Effect of inhibitor on NPS stimulated calcium mobilization", "setting": "[1]", "result": "completely abolished"}, {"measurement": "Effect of inhibitor on NPS-evoked DMR response", "setting": "[2]; FR900359 1 μmol L^−1 (60 minute before NPS), PTX 100 ng mL^−1 (24 hours before), rolipram 10 μmol L^−1 (90 minute before)", "result": "strongly, but not completely, reduced NPS effects"}]}
{"compound": "[D‐Cys(^tBu)^5]NPS", "values": [{"measurement": "behaviour in the calcium mobilization assay", "setting": "[3]", "result": "pure NPSR antagonist"}, {"measurement": "DMR response, HEK293mNPSR pm ± SEM", "setting": "[2]; ligand 1 μmol L^−1, 37°C", "result": "387 ± 43 pm and 387 ± 43 ^a pm"}, {"measurement": "DMR response as % of NPS maximal effect", "setting": "[2]; ligand 1 μmol L^−1 alone", "result": 58, "unit": "%"}]}
{"compound": "CCNC(=O)[C@H]1O[C@@H](n2cnc3c(N)ncnc32)[C@H](O)[C@@H]1O", "note": "[NECA, (2S,3S,4R,5R)‐5‐(6‐aminopurin‐9‐yl)‐N‐ethyl‐3,4‐dihydroxyoxolane‐2‐carboxamide, reference compound]", "values": [{"measurement": "DMR response, HEK293 pm ± SEM", "setting": "[4]", "result": "312 ± 28 ^a pm"}, {"measurement": "DMR response, HEK293mNPSR pm ± SEM", "setting": "[2]; ligand 10 μmol L^−1, 37°C", "result": "229 ± 18 pm and 229 ± 18 ^a pm"}, {"measurement": "DMR response of NECA in presence of rolipram", "setting": "[5]", "result": "464 ± 58", "unit": "pm"}]}
